The values that follow come from patent publication US11926619B2, “Certain pladienolide compounds and methods of use” (EISAI R&D MANAGEMENT CO., LTD., priority 2018, dated 2024).

For data set [1] the following is noted: in vivo; cited from earlier work.
For data set [2] the following is noted: from C=CC[C@@](C)(CCCCC(=O)O[C@H](/C(C)=C/I)[C@@H](C)C=C)O[Si](CC)(CC)CC; rcm bond; Hoveyda-Grubbs catalyst; toluene; 4.0 mM; 50.0 °C; 2.0 h.
The subject of data set [3] is WiDr-R cells (colon cancer cells; chemically-induced SF3B1 R1074H mutant). The note with it: R1074H mutation; cited from earlier work.
The test system is the same in data set [4]. The experiment in a line: Cell viability assay (CellTiter-Glo, 72 hr), resistant WiDr-R cells (counter-screen). The format is cell-based. The note with it: WiDr-R cells (SF3B1 R1074H mutation, resistant); read-out: WiDr-R GI50. In short, it runs like this: (§1)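 Cells at 2000/well were exposed to 9 compound concentrations (0.1% DMSO) in duplicate or triplicate for 72 hr at 37 °C. ATP was read by CellTiter-Glo against a time-zero plate and DMSO control growth. Percent growth/viability was plotted against concentration to give Emax; negative values indicate lethality.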

Data set [5] concerns Panc 05.04 cells (pancreatic cancer cells; Q699H and K700E mutations in SF3B1). Kind of data set: Cell viability assay (CellTiter-Glo, 72 hr), Panc 05.04 cells. The note with it: Panc 05.04 cells (mutant SF3B1); for Emax: maximum achievable response in tested dose range, negative value = cellular lethality, read-out: Panc 05.04 (mt SF3B1 cells) Emax (%); for GI50: read-out: Panc 05.04 (mt SF3B1 cells), GI50. The format is cell-based. The gist of the method: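 Panc 05.04 cells treated 72 hr at 37 °C with 9 compound concentrations (0.1% DMSO), duplicate or triplicate. ATP read by CellTiter-Glo; growth inhibition/viability calculated against a time-zero plate and DMSO control growth. Emax is the maximal response over the tested range, negative values meaning lethality.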
Background: ATP-based viability assays read luminescence as a measure of living cells.

The target of the next data set is T1, SF3b complexes (Homo sapiens, UniProt O75533+Q7RTV0).
T1 construct: endogenous in cells
Kind of data set: Scintillation proximity assay (SPA) with [3H]-labelled pladienolide probe. It is filed as binding. The note with it: wt SF3B1, read-out: SPA (wt SF3B1 cells) IC50. The gist of the method: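 SF3b complexes immunoprecipitated from nuclear extracts with anti-SF3B1 antibody on anti-mouse PVT SPA beads. Beads pre-incubated 30 min with varying PB or PB-OH, then 2.5 nM [3H]-PB added for 30 min; scintillation signal read and fit by non-linear regression.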

The test system of data set [6] is WiDr cells (colon cancer cells; wildtype SF3B1). The experiment in a line: Cell viability assay (CellTiter-Glo, 72 hr), WiDr cells. The format is cell-based. The note with it: Homo sapiens; WiDr cells (wildtype SF3B1); read-out: WiDr GI50. The gist of the method: as §1

Turning to tremelimumab, the plasma half-life entry in data set [1] is reported as “approximately 22 days”.
In data set [2], `CC[Si](CC)(CC)O[C@@]1(C)CC=C[C@H](C)[C@@H](/C(C)=C/I)OC(=O)CCCC1` registered a ring closure, yield of all isomers of 53%.
For `CCC(O)C(C)C1OC1CC(C)(O)/C=C/C=C(\C)C1OC(=O)CC(O)CCC(C)(O)C(OC(=O)N2CCN(C3CCCCCC3)CC2)/C=C/C1C` (stereo not drawn) [Compound E7107, (8E,12E,14E)-7-((4-Cycoheptylpiperazin-1-yl)carbonyl)oxy-3,6,16,21-tetrahydroxy-6,10,12,16,20-pentamethyl-18,19-epoxytricosa-8,12,14-trien-11-olide], the “resistance of WiDr-R cells in terms of growth inhibition” value in data set [3] is listed as “resistant”.
In the case of `C/C(=C\C=C\[C@@H](C)c1ccccn1)[C@H]1OC(=O)C[C@H](O)CC[C@@](C)(O)[C@@H](OC(=O)N2CCCN(C)CC2)/C=C/[C@@H]1C`, the figures for the GI50 in data set [4], in data set [5] and in data set [6] were above 1000 nM, 84.9 nM and 33.1 nM, respectively. Also, the Emax in data set [5] was -23.1%. The IC50 at SF3b complexes was found to be 6.87 nM.
In the same order, the values of `C/C(=C\C=C\[C@@H](C)COC(=O)N1CC[C@@H](O)C1)[C@H]1OC(=O)CCCCC[C@@H](OC(=O)N2CCN(C)CC2)/C=C/[C@@H]1C` are 2840 nM, 6.48 nM, 8.59 nM, -87% and 5.42 nM.
As to `C/C(=C\C=C\[C@@H](C)COC(=O)N1CC[C@@H](N(C)C)C1)[C@H]1OC(=O)C[C@H](O)CC[C@@](C)(O)[C@@H](OC(=O)N2CCN(C3CCCCCC3)CC2)/C=C/[C@@H]1C`, the figures for the GI50 in data set [4], in data set [5] and in data set [6] were 3990 nM, 33 nM and 30.2 nM, respectively. In addition, in data set [5], the Emax is -85.4%. Further, the concentration for half-maximal inhibition (IC50) on SF3b complexes was determined as 9.7 nM.
For the compound `C/C(=C\C=C\[C@@H](C)c1ccccn1)[C@H]1OC(=O)C[C@H](O)CC[C@@](C)(O)[C@@H](OC(=O)N2CCNCC2)/C=C/[C@@H]1C`, the GI50 was above 1000 nM in data set [4], 39.5 nM in data set [5] and 16 nM in data set [6]. The Emax in data set [5] was -76.5%. Further, the IC50 at SF3b complexes came to 26.9 nM.
On to `C/C(=C\C=C/[C@@H](C)COC(=O)N1CC[C@@H](O)C1)[C@H]1OC(=O)C[C@H](O)CC[C@H](C)[C@@H](OC(=O)N2CCN(C)CC2)/C=C/[C@@H]1C`, for which the GI50 in data set [4] is above 1000 nM; in data set [5], 6.67 nM; in data set [6], 4.51 nM. Further, the Emax in data set [5] is -90.4%. Besides, the IC50 on SF3b complexes was found to be 2.15 nM.
In the same order, the values of `C/C(=C\C=C\[C@@H](C)c1ccccn1)[C@H]1OC(=O)C[C@H](O)CC[C@@](C)(O)[C@@H](OC(=O)N2CCN(C3CCCCC3)CC2)/C=C/[C@@H]1C` are above 1000 nM, 21.4 nM, 21.2 nM, -94.3% and 3.32 nM.

Broadly, the GI50 is the concentration giving 50% growth inhibition. The term IC50 denotes the concentration that gives 50% inhibition.
